From patent publication US20150164916A1, “ROFLUMILAST COMPOSITIONS FOR THE TREATMENT OF COPD” (Forest Laboratories Holdings Ltd., priority 2012, published 2015)

Columns and labels:
p-ERK1/2 = assay: Western blot of ERK1/2 phosphorylation in CSE-stimulated neutrophils from COPD patients; format: cell-based, human; details: RNO 1 nM and 1 μM, DEX 1 μM, RNO 1 nM plus DEX 1 μM, NAC 1 mM for 1 h, then CSE 5% 20 min
Method: (§1) Neutrophils and monocytes were isolated from peripheral venous blood by standard laboratory procedures. In brief, peripheral venous blood was mixed with dextran 500 at 3% (in 0.9% saline) in a proportion of 2:1. This mixture was incubated at room temperature for 30 min until erythrocytes were sedimented. The upper phase was carefully collected and added on Ficoll-Paque Histopaque 1077 (Amershan Pharmacia Biotech, Barcelona, Spain) density gradient in a proportion of 3:1. The two phases generated were centrifuged at 150 g, 4° C. for 30 min. […]
(§2) CSE was prepared as previously outlined (Milara et al.; Ortiz et al.). […] The quality of the prepared CSE solution was assessed based on the absorbance at 320 nm, which is the specific absorption wavelength of peroxynitrite. Stock solutions with an absorbance value of 3.0±0.1 were used. […]
Western blot analysis was used to detect changes in p-ERK1/2 (42-44 kD). […] Cells were then centrifuged and the total protein was extracted using a lysis buffer consisting of a complete inhibitor cocktail plus 1 mM ethylenediaminetetraacectic acid (Roche Diagnostics Ltd, West Sussex, UK) with 20 mM Tris base, 0.9% NaCl, 0.1% Triton X-100, 1 mM dithiothreitol and 1 μg mL^−1 pepstatin A. The Bio-Rad assay (Bio-Rad Laboratories Ltd., Herts, UK) was used (following manufacturer's instructions) to quantify the level of protein in each sample to ensure equal protein loading. […]

MIF = assay: Real time RT-PCR of MIF mRNA in CSE-stimulated neutrophils from COPD patients; format: cell-based, human; details: RNO 1 nM and 1 μM, DEX 1 μM, RNO 1 nM plus DEX 1 μM, NAC 1 mM for 1 h, then CSE 5% 6 h
Method: as §1, §2
Total RNA was obtained from isolated neutrophils under basal conditions or after different drug and stimulation periods defined above by using TriPure® Isolation Reagent (Roche, Indianapolis, USA). […] Relative quantification of these transcripts was determined with the 2^−ΔΔCt method using glyceraldehyde phosphate dehydrogenase (GAPDH) as endogenous control (Applied Biosystems; 4352339E) and normalized to control group as previously described (Milara et al., 2009).
Then, mRNA was isolated and quantified for different genes.

O=C(Nc1c(Cl)c[n+]([O-])cc1Cl)c1ccc(OC(F)F)c(OCC2CC2)c1 [RNO, roflumilast N-oxide]
effect on CSE-induced phosphorylation of ERK1/2 (p-ERK1/2): effectively inhibited
effect on CSE-induced increase of MIF mRNA expression (MIF): reversed the effect of CSE
